Laboratory results published in ChEMBL document CHEMBL1201862, “PubChem BioAssay data set” (2004).
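Following 48 hours of exposure in 96-well plates, responses at five concentrations were used to interpolate endpoints linearly. GI50 marks 50% less growth.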 The source made the active and inactive calls. No stated cut-off is given here; in the data, active = GI50 up to about 1.1 µM and inactive = higher.

What was measured:
Test in all cases: growth of human tumour cells (NCI), 48 h
786-0 = tested on: 786-0
CAKI-1 = tested on: CAKI-1
COLO 205 = tested on: COLO 205
HCT-15 = tested on: HCT-15
HOP-92 = tested on: HOP-92
HT-29 = tested on: HT-29
LOX IMVI = tested on: LOX IMVI
MCF7 = tested on: MCF7
MDA-MB-435 = tested on: MDA-MB-435
NCI-H226 = tested on: NCI-H226
OVCAR-4 = tested on: OVCAR-4
OVCAR-8 = tested on: OVCAR-8
PC-3 = tested on: PC-3
SF-268 = tested on: SF-268
SF-539 = tested on: SF-539
SK-MEL-28 = tested on: SK-MEL-28
SK-OV-3 = tested on: SK-OV-3
SW-620 = tested on: SW-620
U-251 = tested on: U-251
UO-31 = tested on: UO-31

COc1ccc(/C=C(\C(=C/c2ccc(OC)cc2)[N+](=O)[O-])[N+](=O)[O-])cc1
GI50 (786-0): 2.04 µM (inactive) | GI50 (CAKI-1): 3.18 µM (inactive) | GI50 (COLO 205): 3.68 µM (inactive) | GI50 (HCT-15): 2.55 µM | GI50 (HOP-92): 3.84 µM (inactive) | GI50 (HT-29): 3.39 µM (inactive) | GI50 (LOX IMVI): 2.05 µM (inactive) | GI50 (MCF7): 6.31 µM (inactive) | GI50 (MDA-MB-435): 3.4 µM (inactive) | GI50 (NCI-H226): 3.97 µM (inactive) | GI50 (OVCAR-4): 12.8 µM (inactive) | GI50 (OVCAR-8): 2.03 µM (inactive) | GI50 (PC-3): 5.85 µM (inactive) | GI50 (SF-268): 4.09 µM (inactive) | GI50 (SF-539): 2.24 µM (inactive) | GI50 (SK-MEL-28): 2.31 µM (inactive) | GI50 (SK-OV-3): 16.6 µM (inactive) | GI50 (SW-620): 2.52 µM (inactive) | GI50 (U-251): 2.58 µM (inactive) | GI50 (UO-31): 4.53 µM (inactive)

CN(N=O)C(=O)Nc1ccc(C(=O)O)cc1
GI50 (786-0): > 100 µM (inactive) | GI50 (CAKI-1): > 100 µM (inactive) | GI50 (COLO 205): > 100 µM (inactive) | GI50 (HCT-15): > 100 µM | GI50 (HOP-92): > 100 µM (inactive) | GI50 (HT-29): > 100 µM (inactive) | GI50 (LOX IMVI): > 100 µM (inactive) | GI50 (MCF7): > 100 µM (inactive) | GI50 (MDA-MB-435): > 100 µM (inactive) | GI50 (NCI-H226): > 100 µM (inactive) | GI50 (OVCAR-4): > 100 µM (inactive) | GI50 (OVCAR-8): > 100 µM (inactive) | GI50 (PC-3): > 100 µM (inactive) | GI50 (SF-268): > 100 µM (inactive) | GI50 (SF-539): > 100 µM (inactive) | GI50 (SK-MEL-28): > 100 µM (inactive) | GI50 (SK-OV-3): > 100 µM (inactive) | GI50 (SW-620): > 100 µM (inactive) | GI50 (U-251): > 100 µM (inactive) | GI50 (UO-31): > 100 µM (inactive)

CCC(c1ccccc1)c1cc(C(C)(C)C)cc(C(C)(C)C)c1O (configuration not stated)
GI50 (786-0): 15.6 µM (inactive) | GI50 (CAKI-1): 16.2 µM (inactive) | GI50 (COLO 205): 18.7 µM (inactive) | GI50 (HCT-15): 16.8 µM | GI50 (HOP-92): 16.5 µM (inactive) | GI50 (HT-29): 14.9 µM (inactive) | GI50 (LOX IMVI): 18 µM (inactive) | GI50 (MCF7): 20.1 µM (inactive) | GI50 (MDA-MB-435): 18.2 µM (inactive) | GI50 (NCI-H226): 18.9 µM (inactive) | GI50 (OVCAR-4): 15.8 µM (inactive) | GI50 (OVCAR-8): 17.3 µM (inactive) | GI50 (PC-3): 17.7 µM (inactive) | GI50 (SF-268): 15.3 µM (inactive) | GI50 (SF-539): 17.4 µM (inactive) | GI50 (SK-MEL-28): 18.3 µM (inactive) | GI50 (SK-OV-3): 14.9 µM (inactive) | GI50 (SW-620): 16.5 µM (inactive) | GI50 (U-251): 17.7 µM (inactive) | GI50 (UO-31): 18.4 µM (inactive)

Cc1cc(-c2nc3ccc(F)cc3s2)ccc1NC(=O)C(N)CCCCN (configuration not stated)
GI50 (786-0): 3.21 µM (inactive) | GI50 (CAKI-1): 9.64 µM (inactive) | GI50 (COLO 205): 4.51 µM (inactive) | GI50 (HCT-15): 9.08 µM | GI50 (HOP-92): 8.2 µM (inactive) | GI50 (HT-29): 3.54 µM (inactive) | GI50 (LOX IMVI): 2.3 µM (inactive) | GI50 (MCF7): 0.0184 µM (active) | GI50 (MDA-MB-435): 2.17 µM (inactive) | GI50 (NCI-H226): 2.44 µM (inactive) | GI50 (OVCAR-4): 8.28 µM (inactive) | GI50 (OVCAR-8): 5.97 µM (inactive) | GI50 (PC-3): 9.53 µM (inactive) | GI50 (SF-268): 6.7 µM (inactive) | GI50 (SF-539): 3.27 µM (inactive) | GI50 (SK-MEL-28): 18.4 µM (inactive) | GI50 (SK-OV-3): 13.3 µM (inactive) | GI50 (SW-620): 2.9 µM (inactive) | GI50 (U-251): 2.11 µM (inactive) | GI50 (UO-31): 2.69 µM (inactive)

Cc1ccc2c(O)c3c(cc2c1)C(=O)c1c2c(cc(O)c1C3=O)C1(C)OC(O2)C(O)C(N(C)C)C1O (configuration not stated)
GI50 (786-0): 0.617 µM (active) | GI50 (CAKI-1): 0.794 µM (active) | GI50 (COLO 205): 0.91 µM (active) | GI50 (HCT-15): 0.614 µM | GI50 (HOP-92): 1.01 µM (active) | GI50 (HT-29): 0.495 µM (active) | GI50 (LOX IMVI): 1.11 µM (active) | GI50 (MCF7): 0.287 µM (active) | GI50 (MDA-MB-435): 1.39 µM (inactive) | GI50 (NCI-H226): 1.15 µM (inactive) | GI50 (OVCAR-4): 1.56 µM (inactive) | GI50 (OVCAR-8): 1.19 µM (inactive) | GI50 (PC-3): 1.05 µM (active) | GI50 (SF-268): 3.65 µM (inactive) | GI50 (SF-539): 1.11 µM (active) | GI50 (SK-MEL-28): 1.32 µM (inactive) | GI50 (SK-OV-3): 1.09 µM (active) | GI50 (SW-620): 1.02 µM (active) | GI50 (U-251): 1.16 µM (inactive) | GI50 (UO-31): 1.27 µM (inactive)

C[C@@H]1CC[C@@]2(NC1)O[C@H]1C[C@H]3[C@@H]4CC[C@H]5C[C@@H](O)CC[C@]5(C)[C@H]4CC[C@]3(C)[C@H]1[C@@H]2C
GI50 (786-0): 31.6 µM (inactive) | GI50 (CAKI-1): > 100 µM (inactive) | GI50 (COLO 205): 57.1 µM (inactive) | GI50 (HCT-15): 36.9 µM | GI50 (HOP-92): 93.5 µM (inactive) | GI50 (HT-29): 57.4 µM (inactive) | GI50 (LOX IMVI): 32.7 µM (inactive) | GI50 (MCF7): 51.5 µM (inactive) | GI50 (MDA-MB-435): > 100 µM (inactive) | GI50 (NCI-H226): > 100 µM (inactive) | GI50 (OVCAR-4): 26.8 µM (inactive) | GI50 (OVCAR-8): 21.5 µM (inactive) | GI50 (PC-3): 82.4 µM (inactive) | GI50 (SF-268): > 100 µM (inactive) | GI50 (SF-539): 25.3 µM (inactive) | GI50 (SK-MEL-28): > 100 µM (inactive) | GI50 (SK-OV-3): 27.4 µM (inactive) | GI50 (SW-620): 88.9 µM (inactive) | GI50 (U-251): 61.2 µM (inactive) | GI50 (UO-31): 42.3 µM (inactive)

Cc1ccnc(NC(NC(=O)c2ccccc2)(C(F)(F)F)C(F)(F)F)c1
GI50 (786-0): > 100 µM (inactive) | GI50 (CAKI-1): > 100 µM (inactive) | GI50 (COLO 205): > 100 µM (inactive) | GI50 (HCT-15): > 100 µM | GI50 (HOP-92): > 100 µM (inactive) | GI50 (HT-29): > 100 µM (inactive) | GI50 (LOX IMVI): > 100 µM (inactive) | GI50 (MCF7): > 100 µM (inactive) | GI50 (MDA-MB-435): > 100 µM (inactive) | GI50 (NCI-H226): > 100 µM (inactive) | GI50 (OVCAR-4): > 100 µM (inactive) | GI50 (OVCAR-8): > 100 µM (inactive) | GI50 (PC-3): > 100 µM (inactive) | GI50 (SF-268): > 100 µM (inactive) | GI50 (SF-539): > 100 µM (inactive) | GI50 (SK-MEL-28): > 100 µM (inactive) | GI50 (SK-OV-3): > 100 µM (inactive) | GI50 (SW-620): > 100 µM (inactive) | GI50 (U-251): > 100 µM (inactive) | GI50 (UO-31): > 100 µM (inactive)

Cc1ccc2ccccc2c1CSc1nc(N)nc2c1ncn2CC(C)C
GI50 (786-0): 21.4 µM (inactive) | GI50 (CAKI-1): 17 µM (inactive) | GI50 (COLO 205): 6.4 µM (inactive) | GI50 (HCT-15): 10.9 µM | GI50 (HOP-92): 17.8 µM (inactive) | GI50 (HT-29): 9.14 µM (inactive) | GI50 (LOX IMVI): 34.8 µM (inactive) | GI50 (MCF7): 12.9 µM (inactive) | GI50 (MDA-MB-435): 10.3 µM (inactive) | GI50 (NCI-H226): 7.82 µM (inactive) | GI50 (OVCAR-4): 11.1 µM (inactive) | GI50 (OVCAR-8): 40.4 µM (inactive) | GI50 (PC-3): 13.9 µM (inactive) | GI50 (SF-268): 45.8 µM (inactive) | GI50 (SF-539): 7.78 µM (inactive) | GI50 (SK-MEL-28): 55.8 µM (inactive) | GI50 (SK-OV-3): 30.5 µM (inactive) | GI50 (SW-620): 24.7 µM (inactive) | GI50 (U-251): 18.2 µM (inactive) | GI50 (UO-31): 2.79 µM (inactive)

CC1(C#N)CC(C)(C)C(/C=C2/CC(C)(C)C(/C=C3/OC(=N)CC3(C)C)=N2)=N1 (configuration not stated)
GI50 (786-0): 24.9 µM (inactive) | GI50 (CAKI-1): 40 µM (inactive) | GI50 (COLO 205): 16.9 µM (inactive) | GI50 (HCT-15): 17.9 µM | GI50 (HOP-92): 12 µM (inactive) | GI50 (HT-29): 27.2 µM (inactive) | GI50 (LOX IMVI): 36.2 µM (inactive) | GI50 (MCF7): 12.3 µM (inactive) | GI50 (MDA-MB-435): 21.7 µM (inactive) | GI50 (NCI-H226): 40.6 µM (inactive) | GI50 (OVCAR-4): 20 µM (inactive) | GI50 (OVCAR-8): 22.9 µM (inactive) | GI50 (PC-3): 30.6 µM (inactive) | GI50 (SF-268): 24.3 µM (inactive) | GI50 (SF-539): 62.2 µM (inactive) | GI50 (SK-MEL-28): 51.9 µM (inactive) | GI50 (SK-OV-3): 20.4 µM (inactive) | GI50 (SW-620): 34.4 µM (inactive) | GI50 (U-251): 38.5 µM (inactive)

CC(=O)N(C(=O)CC(=O)N/N=C\c1ccc(Br)c(N(CCC#N)CCC#N)c1)c1ccc(Cl)cc1
GI50 (786-0): 45.9 µM (inactive) | GI50 (CAKI-1): 44.7 µM (inactive) | GI50 (COLO 205): 69.8 µM (inactive) | GI50 (HCT-15): 14 µM | GI50 (HOP-92): 30.2 µM (inactive) | GI50 (LOX IMVI): 33.9 µM (inactive) | GI50 (MCF7): 52.7 µM (inactive) | GI50 (MDA-MB-435): 27.5 µM (inactive) | GI50 (NCI-H226): 36.1 µM (inactive) | GI50 (OVCAR-8): 54.5 µM (inactive) | GI50 (PC-3): 96.6 µM (inactive) | GI50 (SF-268): > 100 µM (inactive) | GI50 (SF-539): 71.4 µM (inactive) | GI50 (SK-MEL-28): > 100 µM (inactive) | GI50 (SK-OV-3): 49.7 µM (inactive) | GI50 (SW-620): 93.3 µM (inactive) | GI50 (U-251): 46.3 µM (inactive) | GI50 (UO-31): 24.8 µM (inactive)
